Reference: ChEMBL document CHEMBL1949508, “The selective cytotoxic activity in breast cancer cells by an anthranilic alcohol-derived acyclic 5-fluorouracil O,N-acetal is mediated by endoplasmic reticulum stress-induced apoptosis” (Eur J Med Chem, 2012)
The source made the active and inactive calls. No cut-off for these calls is given here.

Key:
MCF-10A [1] = test: Upregulation of BBC3 gene in human MCF10A cells at 37.67 uM after 48 hrs by quantitative RT-PCR analysis; type: functional, cell-based
MCF-10A [2] = test: Upregulation of BMF gene in human MCF10A cells at 37.67 uM after 48 hrs by microarray hybridization relative to control; type: functional, cell-based
MCF7 [3] = test: Downregulation of TP5313 gene in human MCF7 cells at 1.09 uM after 48 hrs by microarray hybridization relative to control; type: functional
MCF7 [4] = test: Upregulation of MTL5 gene in human MCF7 cells at 1.09 uM after 48 hrs by microarray hybridization relative to control; type: functional
MCF7 [5] = test: Upregulation of DNASE1 gene in human MCF7 cells at 1.09 uM after 48 hrs by microarray hybridization relative to control; type: functional
MCF7 [6] = test: Downregulation of AVEN gene in human MCF7 cells at 1.09 uM after 48 hrs by microarray hybridization relative to control; type: functional
MCF-10A [7] = test: Upregulation of GADD45B gene in human MCF10A cells at 37.67 uM after 48 hrs by microarray hybridization relative to control; type: functional, cell-based
MCF7 [8] = test: Upregulation of BBC3 gene in human MCF7 cells at 1.09 uM after 48 hrs by microarray hybridization relative to control; type: functional
MCF-10A [9] = test: Downregulation of E2F1 gene in human MCF10A cells at 37.67 uM after 48 hrs by microarray hybridization relative to control; type: functional, cell-based
MCF-10A [10] = test: Downregulation of […] gene in human MCF10A cells at 37.67 uM after 48 hrs by microarray hybridization relative to control; type: functional, cell-based
MCF7 [11] = test: Antiproliferative activity against human MCF7 cells after 3 days by SRB assay; type: functional, cell-based; settings: MCF7, 72 h
MCF7 [12] = test: Upregulation of BMF gene in human MCF7 cells at 1.09 uM after 48 hrs by microarray hybridization relative to control; type: functional
MCF7 [13] = test: Induction of apoptosis in human MCF7 cells assessed as early apoptotic cells at 1.09 uM after 48 hrs by annexinV-FITC/PI-based flow cytometry (reference value: 3.27 +/- 0.67%); type: functional
MCF-10A [14] = test: Induction of apoptosis in human MCF10A cells assessed as early apoptotic cells at 37.67 uM after 48 hrs by annexinV-FITC/PI-based flow cytometry (reference value: 0.73 +/- 0.23%); type: cell-based
MCF7 [15] = test: Upregulation of GADD45B gene in human MCF7 cells at 1.09 uM after 48 hrs by microarray hybridization relative to control; type: functional
MCF7 [16] = test: Downregulation of BCL2 gene in human MCF7 cells at 1.09 uM after 48 hrs by microarray hybridization relative to control; type: functional
MCF-10A [17] = test: Cytotoxicity against human MCF10A cells after 3 days by SRB assay; type: cell-based; settings: 72 h
MCF7 [18] = test: Upregulation of BNIP3 gene in human MCF7 cells at 1.09 uM after 48 hrs by microarray hybridization relative to control; type: functional
MCF7 [19] = test: Upregulation of CARD14 gene in human MCF7 cells at 1.09 uM after 48 hrs by microarray hybridization relative to control; type: functional
MCF7 [20] = test: Downregulation of CARD9 gene in human MCF7 cells at 1.09 uM after 48 hrs by microarray hybridization relative to control; type: functional
MCF7 [21] = test: Downregulation of CD14 gene in human MCF7 cells at 1.09 uM after 48 hrs by microarray hybridization relative to control; type: functional
MCF-10A [22] = test: Upregulation of DNASE1 gene in human MCF10A cells at 37.67 uM after 48 hrs by microarray hybridization relative to control; type: functional, cell-based
MCF7 [23] = test: Downregulation of BAG2 gene in human MCF7 cells at 1.09 uM after 48 hrs by microarray hybridization relative to control; type: functional
MCF7 [24] = test: Upregulation of BBC3 gene in human MCF7 cells at 1.09 uM after 48 hrs by quantitative RT-PCR analysis; type: functional, cell-based
MCF-10A [25] = test: Downregulation of FAIM gene in human MCF10A cells at 37.67 uM after 48 hrs by microarray hybridization relative to control; type: functional, cell-based
MCF7 [26] = test: Downregulation of UNC5C gene in human MCF7 cells at 1.09 uM after 48 hrs by microarray hybridization relative to control; type: functional
MCF7 [27] = test: Induction of necrosis in human MCF7 cells assessed as necrotic cells at 1.09 uM after 48 hrs by annexinV-FITC/PI-based flow cytometry (reference value: 0.27 +/- 0.01%); type: functional
MCF7 [28] = test: Downregulation of Bcl2 gene expression in human MCF7 cells at 1.09 uM after 48 hrs by quantitative RT-PCR analysis; type: functional, cell-based
MCF-10A [29] = test: Upregulation of MTL5 gene in human MCF10A cells at 37.67 uM after 48 hrs by microarray hybridization relative to control; type: functional, cell-based
MCF-10A [30] = test: Induction of apoptosis in human MCF10A cells assessed as late apoptotic cells at 37.67 uM after 48 hrs by annexinV-FITC/PI-based flow cytometry (reference value: 0.21 +/- 0.1%); type: cell-based
MCF-10A [31] = test: Downregulation of CCL2 gene in human MCF10A cells at 37.67 uM after 48 hrs by microarray hybridization relative to control; type: functional, cell-based
MCF7 [32] = test: Downregulation of […] gene in human MCF7 cells at 1.09 uM after 48 hrs by microarray hybridization relative to control; type: functional

- IC50 (MCF7 [11]): 1.09 µM
Structure (SMILES): COC(CN(c1ccccc1CO)S(=O)(=O)c1ccccc1N)n1cc(F)c(=O)[nH]c1=O (racemic)
- Activity (MCF-10A [1]): inactive
- Activity (MCF-10A [2]): inactive
- fold change (FC) (MCF7 [3]): -2.68
- fold change (FC) (MCF7 [4]): 3.75
- fold change (FC) (MCF7 [5]): 2.07
- fold change (FC) (MCF7 [6]): -2.21
- Activity (MCF-10A [7]): inactive
- fold change (FC) (MCF7 [8]): 3.78
- Activity (MCF-10A [9]): inactive
- Activity (MCF-10A [10]): inactive
- fold change (FC) (MCF7 [12]): 3
- Activity (MCF7 [13]): 13.73%
- Activity (MCF-10A [14]): 2.57%
- fold change (FC) (MCF7 [15]): 2.2
- fold change (FC) (MCF7 [16]): -2.26
- IC50 (MCF-10A [17]): 37.7 µM
- fold change (FC) (MCF7 [18]): 2.65
- fold change (FC) (MCF7 [19]): 2.34
- fold change (FC) (MCF7 [20]): -2.11
- fold change (FC) (MCF7 [21]): -2.61
- Activity (MCF-10A [22]): inactive
- fold change (FC) (MCF7 [23]): -2.32
- Activity (MCF7 [24]): Active
- Activity (MCF-10A [25]): inactive
- fold change (FC) (MCF7 [26]): -2.01
- Activity (MCF7 [27]): 2.52%
- Activity (MCF7 [28]): Active
- Activity (MCF-10A [29]): inactive
- Activity (MCF-10A [30]): 17.29%
- Activity (MCF-10A [31]): inactive
- fold change (FC) (MCF7 [32]): -2.62
